# In patent US9394314B2, “8′-hydroxy-dihydroergotamine compounds and compositions” (priority 2012, dated 2016):
# Columns and labels:
# human 5-HT1D receptor = target: T1, human 5-HT1D receptor (Homo sapiens, UniProt P28221); assay: Radioligand binding assay (competition and kinetics), CHO-K1 membranes
# T1 construct: purchased Euroscreen; host or cells: CHO-K1
# Experimental: (§1) For kinetics of radioligand competitive binding, serial dilutions were performed from master solution in 100% DMSO to obtain intermediate concentrations 200-fold higher than the concentrations to be tested. Each test sample was diluted 100-fold in the assay buffer and dispensed into the test plate.
# 5-HT1D Radioligand Binding Assay
# Assay buffer: 50 mM Tris (pH 7.4), 4 mM CaCl2, 0.1% ascorbic acid
# (§2) Washing buffer: 50 mM Tris (pH 7.4)
# Membrane: recombinant CHO-K1-5-HT1D membranes thawed on ice and diluted in assay buffer (10 μg/well)
# Ligand: 5-HT (Sigma, H-9523)
# (§3) Determination of IC50 and Ki constant for each test compound. […] After washing the filters 5 times with 0.5 mL of ice-cold washing buffer, 50 μL of Microscint 20 (Packard) were added to the filters and the plates were incubated 15 min on an orbital shaker and then counted for 1 min/well. […]
# (§4) Determination of kon and koff constants for each test compound. Each compound was first assessed in a pilot experiment to evaluate its effect on the kinetic binding of each receptor-radioligand pair. […] After washing the filters 5 times with 0.5 mL of ice-cold washing buffer, 50 μL of Microscint 20 (Packard) were added to the filters and the plates were incubated 15 min on an orbital shaker and then counted for 1 min/well.
# human D2L receptor = target: T2, human D2L receptor (Homo sapiens, UniProt P14416); assay: as above
# T2 construct: purchased Euroscreen; host or cells: CHO-K1
# T2 sequence (P14416 whole entry): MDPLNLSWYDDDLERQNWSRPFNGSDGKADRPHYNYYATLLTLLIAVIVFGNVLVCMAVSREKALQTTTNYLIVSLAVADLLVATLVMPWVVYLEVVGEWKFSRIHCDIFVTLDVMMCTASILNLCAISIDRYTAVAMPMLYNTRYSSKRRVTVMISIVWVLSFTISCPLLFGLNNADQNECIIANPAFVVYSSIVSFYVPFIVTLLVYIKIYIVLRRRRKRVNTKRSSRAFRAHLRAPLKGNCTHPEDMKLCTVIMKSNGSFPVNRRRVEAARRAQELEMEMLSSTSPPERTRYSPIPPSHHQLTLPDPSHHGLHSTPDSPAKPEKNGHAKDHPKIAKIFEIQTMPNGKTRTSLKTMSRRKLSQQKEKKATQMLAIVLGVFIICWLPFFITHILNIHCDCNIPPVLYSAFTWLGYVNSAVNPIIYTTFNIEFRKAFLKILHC
# Experimental: as §1
# D2L Radioligand Binding Assay
# Assay buffer: 25 mM HEPES (pH 7.4), 5 mM MgCl2, 1 mM CaCl2, BSA protease free 0.5%
# Washing buffer: 25 mM HEPES (pH 7.4), 5 mM MgCl2, 1 mM CaCl2
# Membrane: recombinant CHO-K1-D2L membranes thawed on ice and diluted in assay buffer (2 μg/well)
# Ligand: Risperidone (Tocris Bioscience, 2865) […]
# as §3
# as §4, with “min/well. […]” for “min/well.”
# [1] = cited from earlier work
# human 5-HT1B receptor = target: T3, human 5-HT1B receptor (Homo sapiens, UniProt P28222); assay: Radioligand binding assay (competition and kinetics), CHO-K1 membranes
# T3 construct: purchased Euroscreen; host or cells: CHO-K1
# T3 sequence (P28222 whole entry): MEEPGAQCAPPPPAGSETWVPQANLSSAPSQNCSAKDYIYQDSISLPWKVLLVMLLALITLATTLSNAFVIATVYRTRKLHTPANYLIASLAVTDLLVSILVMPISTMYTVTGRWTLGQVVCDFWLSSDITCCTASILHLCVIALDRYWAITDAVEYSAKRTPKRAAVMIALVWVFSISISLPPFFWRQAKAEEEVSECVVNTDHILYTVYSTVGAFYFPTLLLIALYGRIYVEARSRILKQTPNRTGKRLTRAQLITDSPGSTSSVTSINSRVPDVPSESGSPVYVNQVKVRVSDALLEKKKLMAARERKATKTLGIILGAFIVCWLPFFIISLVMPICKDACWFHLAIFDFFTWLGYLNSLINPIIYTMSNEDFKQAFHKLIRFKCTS
# Experimental: as §1
# 5-HT1B Radioligand Binding Assay
# as §2
# Ligand: 5-CT (Tocris, 0458)
# Determination of IC50 and Ki constant for each test compound. […] The samples were incubated for 60 min (or 4 hours for a second experiment on 5-HT2B receptors) at a temperature optimized for each receptor and then filtered over a filter plate. After washing the filters 5 times with 0.5 mL of ice-cold washing buffer, 50 μL of Microscint 20 (Packard) were added to the filters and the plates were incubated 15 min on an orbital shaker and then counted for 1 min/well. The test compounds were tested in duplicate at the nanomolar concentrations reported below in Table 5.
# as §4
# [2] = subcutaneously, concentration 1.5 mM; cited from earlier work
# T1 sequence (P28221 whole entry): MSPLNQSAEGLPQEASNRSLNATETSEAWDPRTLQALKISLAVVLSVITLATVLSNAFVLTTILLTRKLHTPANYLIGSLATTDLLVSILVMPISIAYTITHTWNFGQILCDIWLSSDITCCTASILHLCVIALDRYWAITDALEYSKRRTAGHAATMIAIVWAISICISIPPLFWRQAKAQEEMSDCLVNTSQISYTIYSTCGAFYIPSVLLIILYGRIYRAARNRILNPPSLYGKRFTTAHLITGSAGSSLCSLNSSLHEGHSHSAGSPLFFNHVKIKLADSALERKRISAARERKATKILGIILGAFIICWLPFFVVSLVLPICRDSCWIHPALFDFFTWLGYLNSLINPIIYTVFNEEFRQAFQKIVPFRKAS
Structure (SMILES),Avg Koff (human 5-HT1D receptor),Avg Koff (human D2L receptor),concentration of 8′-OH DHE metabolite relative to parent DHE ([1]; previous studies),Avg Koff (human 5-HT1B receptor),treated patients with nausea [2],fraction of administered dose extracted in the urine ([1]; IM administered dose),total DHE metabolites as share of plasma AUC ([1]; nasal administration of DHE)
"CN1C[C@H](C(=O)N[C@]2(C)O[C@@]3(O)[C@@H]4CCC(O)N4C(=O)[C@H](Cc4ccccc4)N3C2=O)C[C@@H]2c3cccc4[nH]cc(c34)C[C@H]21 (stereo partly shown) [8′-OH DHE, 8′-Hydroxy-Dihydroergotamine]",0.000175 s⁻¹,0.00127 s⁻¹,5 to 7 times,9.83e-05 s⁻¹,–,–,–
"CN1C[C@H](C(=O)N[C@]2(C)O[C@@]3(O)[C@@H]4CCCN4C(=O)[C@H](Cc4ccccc4)N3C2=O)C[C@@H]2c3cccc4[nH]cc(c34)C[C@H]21 [DHE, Dihydroergotamine]",–,–,–,–,~16%,6-7%,20-30%
